Laboratory results from a melting point compilation (Tetko et al.; mined from patent text by program, amines drawn as free bases though some values may be those of a salt).

| melting point [°C] | SMILES |
| --- | --- |
| 51 to 54 | Cc1ncc(I)nc1C |
| 177 | O=C(c1ccc(-c2ccc(=O)n(-c3ccc(F)cc3)n2)cc1)N1CCC[C@H]1CN1CCCC1 |
| 200 to 204 | c1cn(Cc2ccc3c(c2)-c2[nH]nc(-c4ccsc4)c2C3)cn1 |
| 119 to 120 | O=[N+]([O-])c1ccc(OCC2CCN(c3ccncc3)CC2)cc1 |
| 191 to 195 | Cc1noc2cc3c(cc12)C1(CO3)C(=O)N(Cc2ccc(-c3cc(N)n[nH]3)cc2)c2ccccc21 (stereo not drawn) |
| 188 | Cc1csc(NC(=S)Nc2cc(Cl)ccc2C)n1 |
| 209 to 212 | O=Cc1ccc2c3c1ccc1cccc(c13)C2 |
| 115 to 120 | CC(=O)N1CCC(Oc2c(F)c(F)c(F)c(F)c2F)(c2ccccc2)CC1 |
| 75 to 80 | COC(=O)C(CNC(C)=O)C1CCC(c2ccccc2)CC1 (stereo not drawn) |
| 165 to 167 | CSC(=O)C(=O)c1ccnc(NC=O)c1 |
| 101 to 103 | SC12CC3CC(CC(C3)C1)C2 |
| 43 to 46 | CC(O)CCCCCCCCc1ccc(O)c(O)c1 (stereo not drawn) |
| 232 to 234 | COC(=O)Nc1nc(C)c(-c2nc3ccccc3c(=O)n2-c2ccc(C(C)=O)cc2)s1 |
| 54.5 to 56 | Oc1ccc(C2CC2(Cl)Cl)cc1 (stereo not drawn) |
| 214 | Cn1ccnc1S(=O)(=O)C(C#N)=Cc1c(Cl)n(CC2CC2)c2ccccc12 |
| 96 | Cn1c(=O)n(COc2ccc(Cl)cc2)c(=O)c2c1ncn2Cc1ccccc1 |
| 85 to 87 | COC(=O)c1cc(OCCCCCCOc2ccc(-c3ccccc3)cc2)ccc1OCc1ccccc1 |
| 73 to 74 | CCOC(=O)c1cnoc1-c1ccc2c(c1)OCO2 |

| melting point [°C] | SMILES |
| --- | --- |
| 183 to 185 | CC(=O)N1CCc2cc(N)ccc21 |
| 170 to 174 | COc1c(N2CCC(c3ccccc3CN)C2)c(F)cc2c(=O)c(C(=O)O)cn(C3CC3)c12 (stereo not drawn) |
| 304 to 306 | CC(C)CCNC(=O)c1cc2c(Nc3cccc(Cl)c3)ncnc2[nH]1 |
| 173 | CC(=O)Oc1ccc2c(c1Cl)Sc1ccccc1N2 |
| 222 to 224 | O=[N+]([O-])c1cn2c(n1)OC(COc1ccc(-c3csc(Cc4ccc(OC(F)(F)F)cc4)n3)cc1)CC2 (stereo not drawn) |
| 92.5 | O=C1N(c2cc(Cl)cc(Cl)c2)C(=O)C2(Cc3ccc(Br)cc3)CNCCN12 (stereo not drawn) |
| 128 | CC12CCC(C(=Cc3ccc(COc4ccccc4C(=O)O)cc3)C1=O)C2(C)C (stereo not drawn) |
| 170 to 172 | CCC1c2[nH]c3ccccc3c2CC(CO)N1C(=S)SC (stereo not drawn) |
| 155 to 170 | CCc1cc(OCc2ccc(-c3ccccc3-c3nnnn3-c3ccncc3)cc2)c2ccccc2n1 |
| 37 to 39 | CC(C)=CCCC(C)CCOCC(=O)c1cc(C(C)C)c(O)c(C(C)C)c1 (stereo not drawn) |
| 142 to 144 | O=C(Cc1ccc(-c2ccccc2)cc1)NCCc1ccc(OCc2ccccc2)c(OCc2ccccc2)c1 |
| 233 to 235 | Nc1nc2ccccc2c2c1ncn2CCSc1ccccc1 |
| 240 | C=CCOc1ccccc1NC=C1C(=O)N(c2ccc(C(=O)O)cc2)N=C1C |
| 110 to 111 | N#CC(C(=O)NC1CCC1)C(=O)C1CC1 (stereo not drawn) |
| 99 | CCSc1ccc2c(c1)C(Cl)Cc1ccc(F)cc1S2 (stereo not drawn) |
| 225 to 227 | CC12CCC3c4ccc(O)cc4CCC3C1CC(O)C2=C(F)F (stereo not drawn) |
| 130 to 132 | O=C1NCCc2c1c1cccc(F)c1n2COCc1ccccc1 |

Continued, molecule first:

| SMILES | melting point [°C] |
| --- | --- |
| O=[N+]([O-])c1ccc(-c2cccc(-c3cn([C@H]4CN5CCC4CC5)nn3)c2)cn1 | 180 |
| CCOC(=O)C(=NOC)c1noc(C(Cl)(Cl)Cl)n1 | 143 to 146 |
| S=C(NCCc1ccc(Cl)cc1)Nc1nc2ccccc2[nH]1 | 173 to 182 |
| Nc1cc(-c2cc(=O)c(C(=O)O)cn2-c2ccc(F)cc2)ccc1O | 231 to 233 |
| CN1CCN(Cc2cccc(OCc3ccc4ccccc4n3)c2)CC1 | 47 to 49 |
| NS(=O)(=O)OCCOc1cccc(OCc2ccccc2)c1 | 107 to 109 |
| CCCc1cccc2c(/C=C(\C)C(=O)O)cc(OC)c(OCOC)c12 | 67 to 68 |
| NC(=O)c1ccc(OCC(F)(F)F)cc1 | 177 to 178 |
| COc1c(S(=O)(=O)Cl)ccc(Cl)c1CBr | 88 to 92 |
| CCOC(=O)c1csc2nc(C(=O)OC)cn12 | 187 to 189 |
| CCCCOC(=O)C(NC(=O)OC(C)(C)C)c1c[nH]c2ccccc12 (stereo not drawn) | 127 to 128 |
| Cc1cc(C(=O)O)ccc1C(N)C(=O)O (stereo not drawn) | > 250 |
| CC(C)NCC(O)COC1c2ccccc2C(=O)N1c1ccc(Cl)cc1 (stereo not drawn) | 90 to 92 |
| Clc1nc(N2CC3CCC(CC3)C2)nc(N2CC3CCC(CC3)C2)n1 | 195 to 200 |
| O=C1CSC(C(=O)O)Cc2cc3c(cc21)OCO3 (stereo not drawn) | 234 to 235 |
| COc1ccc(N2CCN(Cc3n[nH]c4c(F)cccc34)CC2)cc1 | 178 to 179 |
| CS(=O)(=O)C(=C1CN(C(c2ccccc2)c2ccccc2)C1)c1ccc(Cl)cc1Cl | 165 |
| CCOC(=O)/C(=C\Nc1cc(OC)ccc1OC)c1ccc(OC)cc1 | 65 to 66 |
| CC(C)(C)OC(=O)CC[C@H](NC(=O)c1ccc(N)cc1F)C(=O)OC(C)(C)C | 91 to 95 |
| CCCC1=NN(c2ccc(S(=O)(=O)NC(C)(C)C)cc2)C(=O)C1=CNc1ccccc1OCC | 254 |
| CCCCc1nn(-c2cc(NC(=O)CC)ccc2Cl)c(=O)n1Cc1ccc(-c2ccccc2S(=O)(=O)NC(=O)OC(C)(C)C)cc1F | 137 to 140 |
| CCCCCCCN(CCCCCSc1nc2ncccc2[nH]1)C(=O)NC(C)C | 101 to 102 |
| COC(=O)C(O)C(Sc1ccc2ccccc2c1N)c1ccc(OC)cc1 (stereo not drawn) | 132 to 134 |

| SMILES | melting point [°C] |
| --- | --- |
| CC(=O)OC1CSC(Oc2cccc(-c3ncccc3Cl)c2)C(OC(C)=O)C1OC(C)=O (stereo not drawn) | 148 |
| Cc1ccc(C)c2oc(CN3CCC[C@@H](OCc4cc(C(F)(F)F)cc(C(F)(F)F)c4)[C@H]3c3ccccc3)nc12 (relative stereo) | 109 to 110 |
| CCCCS(=O)(=O)NC(=O)c1ccc(C(=O)NCCO)nc1 | 168 to 169 |
| CC(=O)CCC(=O)c1ccc(S(C)(=O)=O)cc1 | 132 to 133 |
| O=S1(=O)c2ccccc2NC(CO)c2cccn21 (stereo not drawn) | 135 to 136 |
| CC(C)(C)OC(=O)NCC(=O)N[C@@H](Cc1ccccc1)C(=O)O | 138 to 141 |
| CC(C)OC(=O)c1ccc(NC(=O)N2CC(CCCC#N)C(c3ccc(Cl)cc3)=N2)cc1 (stereo not drawn) | 109 to 113 |
| CCc1noc(C)c1-c1[nH]c2ccccc2c1CC(N)=O | 194 to 195 |
| CCOC(=O)C1=C(C)NC(c2csc(C)n2)=NC1c1ccc(F)cc1Cl (stereo not drawn) | 123 to 125 |
| O=C1N=NC(=O)N1c1c(F)c(F)c(F)c(F)c1F | 88 to 91 |
| O=C(O)COc1ccc(C(=O)C=Cc2ccccc2F)c(Cl)c1Cl | 191 to 194 |
| Cc1cc(OCc2coc(C=Cc3ccc(OC(F)F)cc3)n2)ccc1COCCn1ccnn1 | 119 to 120 |
| O=Cc1ccc2c(c1)ncn2-c1cccc(-c2ccccc2)c1 | 170 to 172 |
| CCCCN1CC(=O)NC1=O | 90 to 92 |
| CCCCCN1C(=O)C(N)(CC(=O)c2cccs2)c2ccccc21 (stereo not drawn) | 167 to 169 |
| CC(NC(=O)c1ccc([N+](=O)[O-])cc1)C(=O)O (stereo not drawn) | 199 to 200 |
| Cc1c(C(=O)Nc2ccc(Cl)c([N+](=O)[O-])c2)cnn1-c1ccc(Cl)cc1 | 221 to 225 |
| CC1(C)C(=O)N(c2ccc(C#N)c(C(F)(F)F)c2)C(=O)N1CC1CC1CN1C(=O)N(c2ccc(C#N)c(C(F)(F)F)c2)C(=O)C1(C)C (stereo not drawn) | 178 to 180 |
| Nc1cnc(-c2cccc(Cl)c2Cl)c(N)n1 | 169 to 170 |
| CNC(=O)c1cnc(OCC(O)CNC(C)C)c(Cl)c1 (stereo not drawn) | 130 to 132 |
| OC(CNc1ccc(Cl)cc1)Cn1ccnc1 (stereo not drawn) | 123 to 125 |
| CC1(C(=O)O)Oc2ccc(Cl)cc2C(C)(c2ccccc2)O1 (stereo not drawn) | 181 |
| CCC1(C)CC(O)C2(C)CCC3c4ccc(O)cc4CCC3C12 (stereo not drawn) | 132 to 136 |

| SMILES | melting point [°C] |
| --- | --- |
| O=C(O)/C=C/c1ccc(C(=C2CCCCCC2)c2ccc(O)c(Cl)c2)cc1 | 155 to 156 |
| OCc1cnoc1-c1ccc(Cl)c(F)c1 | 87 to 88 |
| CC(C)n1nc(-c2sc(Nc3ccccn3)nc2-c2ccccc2)ccc1=O | 194 to 195 |
| O=c1cc(S)oc2ccccc12 | 207 to 208 |
| COc1cc2c3ccc(OC)c(OC)c3n(S(=O)(=O)c3cc(Cl)ccc3Cl)c2cc1OC | 221 to 224 |
| CC(C)c1ccccc1SC1=C(O)CC(CCCCC(=O)O)(c2ccccc2)OC1=O (stereo not drawn) | 145 to 146 |
| c1ccc(Sc2ccc[nH]2)cc1 | 86 to 87 |
| O=C(O)c1ccccc1C(=O)NCCCSc1ccncc1 | 151 to 153 |
| O=C(O)C1=Cc2cc(C(=O)Cc3ccccc3)ccc2OC1C(F)(F)F (stereo not drawn) | 159 to 164 |
| NC(=O)c1ccc2c(c1)nc(-c1ccc(OCc3ccccc3)cc1)n2C1CCCC1 | 232 to 233 |
| O=C(O)CCC(O)c1ccc(-c2ccc(Cl)cc2)cc1 (stereo not drawn) | 134 to 135 |
| S=C(NCCN1CCOCC1)Nc1nccs1 | 150 to 152 |
| Cc1c(C)c2c(c(C)c1O)CCC(C)(COc1ccc(CC(Cl)C(=O)O)cc1)O2 (stereo not drawn) | 148 to 149 |
| O=C(/C=C/c1cccs1)Nc1ccc(-n2nc(C(F)(F)F)cc2C(F)(F)F)cc1 | 216 to 218 |
| Cc1nnc2c(Cl)nc3ccc(Cl)cc3n12 | > 280 |
| CC(C)(C)CC(C)(C)C(CCC(=O)OO)CC(=O)OO (stereo not drawn) | 60 to 62 |
| CC12C=CC(C1)C(C(N)=O)C2(C(N)=O)c1cccc(Br)c1 (stereo not drawn) | 111 to 113 |
| O=S(c1[nH]c(-c2ccc(Cl)cc2)c(S(=O)(=O)C(F)(F)F)c1Br)C(F)(F)F (stereo not drawn) | 120 to 170 |
| N#Cc1cccnc1N1CCN(CC(=O)Nc2ccc(F)c(C(F)(F)F)c2)CC1 | 120 to 122 |
| NC(CC(=O)c1ccc(N2CCN(c3ccncc3)CC2)cc1)C(=O)O (stereo not drawn) | 263 to 264 |
| COC=C(C#N)Cc1ccc(OC)c(OC)c1 | 64 to 65 |
| CC1=C(C#N)S(=O)c2ccc(C(F)(F)F)cc2N1 (stereo not drawn) | 290 to 292 |
